According to ChEMBL document CHEMBL4828772, “Imidazo[1,2-b]pyridazines as IL-17A Inhibitors for Treating Psoriasis, Rheumatoid Arthritis, and Multiple Sclerosis” (ACS Med Chem Lett, 2021):

Test: Inhibition of C-terminal Avi/His-tagged IL-17A (1 to 155 residues) (unknown origin) expressed in baculovirus infected insect cells binding with FLAG-tagged/Thrombin cleavage site fused IL-17RA (1 to317 residues) N206D/N256D mutant (unknown origin) expressed in baculovirus infected insect cells measured after 2 hrs by AlphaLISA method
Design: species or system Homo sapiens

| Structure (SMILES) | IC50 [nM] |
| --- | --- |
| COC[C@H](c1cnn2cc([C@@H](NC(=O)c3nonc3C(F)F)C3CCC(F)(F)CC3)nc2c1)N1C[C@@H](C(F)(F)F)NC1=O | < 9.45 |
| COC[C@H](c1cnn2cc([C@@H](NC(=O)c3nonc3C(F)(F)F)C3CCC(F)(F)CC3)nc2c1)N1C[C@@H](C(F)(F)F)NC1=O | < 9.45 |
| CC(C)c1nonc1C(=O)N[C@H](c1cn2ncc(CN3C[C@@H](C(F)(F)F)NC3=O)cc2n1)C1CCC(F)(F)CC1 | < 9.45 |
| O=C(N[C@H](c1cn2ncc(CN3C[C@@H](C(F)(F)F)NC3=O)cc2n1)C1CCC(F)(F)CC1)c1nonc1C(F)(F)F | < 9.45 |
| COC[C@H](c1cnn2cc([C@@H](NC(=O)c3conc3C3CC3)C3CCC(F)(F)CC3)nc2c1)N1C[C@@H](C(F)(F)F)NC1=O | < 9.45 |
| O=C(N[C@H](c1cn2ncc(CN3C[C@@H](C(F)(F)F)NC3=O)cc2n1)C1CCC(F)(F)CC1)c1nonc1C1CC1 | < 9.45 |
